According to patent US7749996B2, “Heterotricyclic metalloprotease inhibitors” (Alantos Pharmaceutical Holdings, Inc., priority 2006, dated 2010):
pIC50: −log10 of the molar value.

What follows are compounds tested against T1, catalytic domain of MMP-13 enzyme (Homo sapiens, UniProt P45452) (assay: Assay for determining MMP-13 inhibition (fluorescent substrate)). Conditions: Table 1, activity group.
T1 construct: stock solution of catalytic domain of MMP-13 enzyme (produced by Alantos or commercially available from Invitek (Berlin), Cat.# 30100812); purchased Invitek (Berlin) 30100812
Type: biochemical
Method: The typical assay for MMP-13 activity is carried out in assay buffer comprised of 50 mM Tris, pH 7.5, 150 mM NaCl, 5 mM CaCl2 and 0.05% Brij-35. Different concentrations of tested compounds are prepared in assay buffer in 50 μL aliquots. […] The mixture of enzyme and compound in assay buffer is thoroughly mixed and incubated for 10 min at room temperature. […] The time-dependent increase in fluorescence is measured at the 320 nm excitation and 390 nm emission by automatic plate multireader. The IC50 values are calculated from the initial reaction rates.
Nc1c(N2CCc3ccc(CNC(=O)c4nc5sc6ccccc6c5c(=O)[nH]4)cc3C2)c(=O)c1=O [2/67] gave a pIC50 greater than 7.00.
With O=C(NCc1cccc(N2CCOCC2)c1)c1nc2sc3c(c2c(=O)[nH]1)CCC3 [2/359] the pIC50 was greater than 7.00.
Work on CS(=O)(=O)c1ccc(CNC(=O)c2nc3sc4c(c3c(=O)[nH]2)CCC4)cc1 [2/302] yielded a pIC50 of 4.70 to 7.00.
COC(=O)C1SCCN1C(=O)c1nc2sc3c(c2c(=O)[nH]1)CCC3 (stereo not shown) [2/307] was tested, and the pIC50 was 4.70 to 7.00.
In the case of O=C(NCc1cccnc1)c1nc2sc3c(c2c(=O)[nH]1)CCC3 [2/309], the pIC50 was greater than 7.00.
For O=C(NCc1ccc(CN2CCOCC2)cc1)c1nc2sc3c(c2c(=O)[nH]1)CCC3 [2/355], the pIC50 was 4.70 to 7.00.
CC(C)(C)c1ccc2c(c1)sc1nc(C(=O)NCc3ccc4c(c3)NC(=O)CO4)[nH]c(=O)c12 [2/143] showed a pIC50 of 4.70 to 7.00.
Work on O=C(NCc1ccc2occc2c1)c1nc2sc3c(c2c(=O)[nH]1)CCC3 [2/354] yielded a pIC50 greater than 7.00.
Work on NS(=O)(=O)c1ccc(CNC(=O)c2nc3sc4c(c3c(=O)[nH]2)CCC4)s1 [2/367] yielded a pIC50 greater than 7.00.
NS(=O)(=O)c1ccc(CCNC(=O)c2nc3sc4c(c3c(=O)[nH]2)CCC4)cc1 [2/530] gave a pIC50 of 4.70 to 7.00.
Nc1c(N2CCc3ccc(CNC(=O)c4nc5sc6c(c5c(=O)[nH]4)CCCS6)cc3C2)c(=O)c1=O [2/120] showed a pIC50 greater than 7.00.
Work on C[C@@H](NC(=O)c1nc2sc3c(c2c(=O)[nH]1)CCC3)c1ccc(F)cc1 [2/319] yielded a pIC50 of 4.70 to 7.00.
O=C(NCc1ccc(F)c(OC(F)(F)F)c1)c1nc2sc3c(c2c(=O)[nH]1)CCC3 [2/332] showed a pIC50 greater than 7.00.
Work on O=C1COc2ccc(CNC(=O)c3nc4sc5c(c4c(=O)[nH]3)CCCNC5)cc2N1 [15/4] yielded a pIC50 greater than 7.00.
CN1CCc2c(sc3nc(C(=O)NCc4ccc5c(c4)NC(=O)CO5)[nH]c(=O)c23)C1 [2/29] gave a pIC50 greater than 7.00.
COC(=O)C1(CNC(=O)c2nc3sc4c(c3c(=O)[nH]2)CCC4)CCCCC1 [2/526] gave a pIC50 greater than 7.00.
CC(C)NC(=O)c1nc2sc3c(c2c(=O)[nH]1)CCC3 [2/294] gave a pIC50 of 4.70 to 7.00.
NC(=O)[C@@H]1CCC[C@@H]1NC(=O)c1nc2sc3c(c2c(=O)[nH]1)CCC3 [2/323] showed a pIC50 of 4.70 to 7.00.
Work on O=C1COc2ccc(CNC(=O)c3nc4sc5c(c4c(=O)[nH]3)C3CCN5CC3)cc2N1 [2/89] yielded a pIC50 greater than 7.00.
O=C(NCc1ccc(C(F)(F)F)nc1)c1nc2sc3c(c2c(=O)[nH]1)CCC3 [2/368] gave a pIC50 of 4.70 to 7.00.
O=C1COc2ccc(CNC(=O)c3nc4sc5c(c4c(=O)[nH]3)CCC(c3ccccc3)C5)cc2N1 (stereo not shown) [2/145] gave a pIC50 greater than 7.00.
NC(=O)[C@@H](NC(=O)c1nc2sc3c(c2c(=O)[nH]1)CCC3)c1ccccc1 [2/327] gave a pIC50 of 4.70 to 7.00.
For O=C1COc2ccc(CNC(=O)c3nc4cc5c(cc4c(=O)[nH]3)CCC5)cc2N1 [2/246], the pIC50 was greater than 7.00.
O=C1COc2cc(CNC(=O)c3nc4sc5c(c4c(=O)[nH]3)CCCC5)ccc2N1 [2/34] gave a pIC50 of 4.70 to 7.00.
O=C(CCc1ccc2sccc2c1)c1nc2sc3c(c2c(=O)[nH]1)CCC3 [2/352] showed a pIC50 of 4.70 to 7.00.
Nc1c(N2CCc3ccc(CNC(=O)c4nc5sc6c(c5c(=O)[nH]4)CCC(c4ccccc4)C6)cc3C2)c(=O)c1=O (stereo not shown) [2/146] was tested, and the pIC50 was 4.70 to 7.00.
In the case of O=C(c1nc2sc3c(c2c(=O)[nH]1)CCC3)N1CC[C@H]2CCCC[C@@H]2C1 [2/305], the pIC50 was 4.70 to 7.00.
O=C1COc2cc(CNC(=O)c3nc4sc5ccccc5c4c(=O)[nH]3)ccc2N1 [2/24] gave a pIC50 of 4.70 to 7.00.
Work on O=C(NCc1ccsc1)c1nc2sc3c(c2c(=O)[nH]1)CCC3 [2/344] yielded a pIC50 of 4.70 to 7.00.
CC(C)(C)c1ccc2c(c1)sc1nc(C(=O)NCc3ccc4c(c3)CN(c3c(N)c(=O)c3=O)CC4)[nH]c(=O)c12 [2/144] was tested, and the pIC50 was 4.70 to 7.00.
Compound O=C(NCC1CC1)c1nc2sc3c(c2c(=O)[nH]1)CCC3 [2/291] has a pIC50 of 4.70 to 7.00.
For Nc1c(N2CCc3ccc(CNC(=O)c4nc5sc6c(c5c(=O)[nH]4)C4CCN6CC4)cc3C2)c(=O)c1=O [2/90], the pIC50 was greater than 7.00.
For O=C1COc2ccc(CNC(=O)c3nc4sc5c(c4c(=O)[nH]3)CNCC5)cc2N1 [15/5], the pIC50 was greater than 7.00.
Work on O=C1COc2ccc(CNC(=O)c3nc4sc5c(c4c(=O)[nH]3)CCCS5)cc2N1 [2/119] yielded a pIC50 greater than 7.00.
